In patent US12630564B2, “Internal cyclic sulphiamidine amide-aryl amide compound and use thereof for treating hepatitis B” (SHANGHAI LONGWOOD BIOPHARMACEUTICALS CO., LTD., priority 2019, dated 2026):

How the values were obtained:
Assay type in all cases: cell-based
[1] = Determination of cytotoxicity, HepG2 cells, resazurin assay (Experiment 3); settings: human
Experimental: (§1) Experiment 3: Determination of Cytotoxicity
(§2) The cytotoxicity of the test compound was tested using HepG2 cells. The cells were incubated for 4 days in the presence of the test compound. Cell activity was assessed using the resazurin assay.

[2] = system: HBV DNA in the supernatant of HepG2.2.15; experiment: Determination of anti-HBV activity in HepG2.2.15 cell, HBV DNA in supernatant by qPCR (Experiment 2); settings: Hepatitis B virus, HepG2.2.15, HepG2.2.15 cells
Experimental: Experiment 2: Determination of Anti-HBV Activity in HepG2.2.15 Cell
• QIAamp 96 DNA Blood Kit (12) (Qiagen, Item No. 51162); • FastStart Universal Probe Master (Roche, Item No. 04914058001); • Cell-titer Glo Testing Reagent (Promega, Item No. G7573).
Compound dilution: all the compounds for in vitro anti-HBV activity assay and cytotoxicity assay were 3-fold diluted into 8 concentrations. The final starting concentration of the tested compound was 30 μM, the final starting concentration of reference compound GLS4 was 1 μM, and the final concentration of DMSO was 0.5%.
HepG2.2.15 cells (4×10^4 cells/well) was inoculated into 96-well plates and cultured overnight at 37° C., 5% CO2. On the second day, fresh culture medium containing different concentrations of compounds was added into the culture wells. On the fifth day, the old culture solution in the culture well was aspirated and fresh culture medium containing different concentrations of the compound was added.
On the eighth day, the supernatant in the culture well was collected for extraction of HBV DNA, and the content of HBV DNA in the supernatant of HepG2.2.15 was detected by qPCR. After the supernatant was collected, the medium and Cell-titer Glo reagent were added into the culture well, and the chemiluminescence value of each well was measured by microplate reader.
The activity calculation formula was as follows: Y=Bottom+(Top−Bottom)/(1+10^((Log IC50−X)*HillSlope)); • wherein, • X represents the logarithm of the concentration, Y represents the effect value, and Y starts from the bottom and fits to the top by S type fitting.
Bottom represents the bottom of the curve;
Top represents the top of the curve;
HillSlope represents the absolute value of the maximum slope of the curve.

HepG2 cells = experiment: Determination of cytotoxicity, HepG2 cells, resazurin assay (Experiment 3); settings: 4 days
Experimental: as §1, §2

SMILES | CC50 at 4 days [1] [nM] | EC50 [2] [nM] | CC50 (HepG2 cells) [nM]
Cn1cc2c(c1C(=O)Nc1ccc(F)c(C#N)c1)CC[C@H](C1CC1)NS2(=N)=O (single isomer, unassigned) [Compound 100a01] | > 30000 |  | 
Cn1cc2c(c1C(=O)Nc1ccc(F)c(C#N)c1)C=C[C@H](C1CC1)NS2(=N)=O (single isomer, unassigned) [Compound 100a04] | > 30000 | 0.1 to 100 | 
Cn1cc2c(c1C(=O)Nc1ccc(F)c(C#N)c1)CC[C@H](C1CC1)NS2(=N)=O (single isomer, unassigned) [Compound 100a02] |  |  | > 30000
Cn1cc2c(c1C(=O)Nc1ccc(F)c(C#N)c1)CC[C@H](CC1CC1)NS2(=N)=O (single isomer, unassigned) [Compound 100b02] | > 30000 | 0.1 to 100 | 
CC(C)[C@H]1C=Cc2c(cn(C)c2C(=O)Nc2ccc(F)c(C#N)c2)S(=N)(=O)N1 (single isomer, unassigned) [Compound 10b2] |  |  | > 30000
CC(C)[C@@H]1C=Cc2c(cn(C)c2C(=O)Nc2ccc(F)c(C#N)c2)S(=N)(=O)N1 (single isomer, unassigned) [Compound 10h2] |  |  | > 30000
Cn1cc2c(c1C(=O)Nc1ccc(F)c(C#N)c1)C=C[C@H](Cc1ccc(F)cc1)NS2(=N)=O (single isomer, unassigned) [Compound 100c04] | > 30000 | 0.1 to 100 | 
Cn1cc2c(c1C(=O)Nc1ccc(F)c(C#N)c1)C=C[C@H](CC1CC1)NS2(=N)=O (single isomer, unassigned) [Compound 100b04] | > 30000 | 0.1 to 100 | 
COc1ccc(C[C@H]2CCc3c(cn(C)c3C(=O)Nc3ccc(F)c(C#N)c3)S(=N)(=O)N2)cc1 (single isomer, unassigned) [Compound 100c14] | > 30000 | 0.1 to 100 | 
Cn1cc2c(c1C(=O)Nc1ccc(F)c(C#N)c1)CC[C@H](Cc1ccc(F)cc1)NS2(=N)=O (single isomer, unassigned) [Compound 100c02] | > 30000 | 0.1 to 100 | 
COc1ccc(C[C@H]2C=Cc3c(cn(C)c3C(=O)Nc3ccc(F)c(C#N)c3)S(=N)(=O)N2)cc1 (single isomer, unassigned) [Compound 100c16] | > 30000 | 0.1 to 100 | 
